Measurements published in patent publication US4956355A, “Agents for the arrest and therapy of retroviral infections” (Colthurst Limited, priority 1987, dated 1990).
Read-outs that look alike come from different tables or passages of the source.

Key:
[1] = system: HIV in VB T lymphoma cell line; assay: Inhibition of HIV mediated cytopathic effects (multinucleated giant/syncytial cell formation) in acutely infected VB tumor cell line; assay type: cell-based
Experimental: (§1) 1. […] All three viral strains were grown in the Tissue Culture Laboratory of the AIDS Activity Division of San Francisco General Hospital where titers of […] infectious units per ml were routinely achieved.
(§2) 2. Source of cells: The VB cell line used in Example 1 is a T lymphoma cell line that is highly susceptible to infection with HIV, and expresses high levels of cell surface CD4 molecules. This cell line forms syncytia within two days after infection with all strains of HIV tested to date. […] This is used to quantitate infection in the absence of syncytial formation, infection being quantitated by immunofluorescence assays. The HXB/H9 cell line (Example 6) is an H9 cell population that chronically produces the HTLV-IIIB strain of HIV and is utilised in experiments testing antiviral effects on chronically infected cell lines. Human macrophages were prepared from peripheral blood mononuclear cells either obtained from the blood bank as a buffy coat, or as a leukophoresis preparation. Crowe et al. supra have devised an assay system that allows quantitation of HIV infection, and inhibition of infection using immunocytofluorographic analysis. In order to quantitate HIV infection in macrophages, they grow macrophages in Teflon (Trade Mark) culture vessels which maintain macrophages in suspension in vitro culture for up to six months. Cell surface and cytoplasmic immunofluorescence staining is then performed to quantitate antigens in macrophages by flow cytometry.
5. Inhibition of acute infection: Several assays were utilized to test for inhibition of acute infection; these included:
(a) Inhibition of multinucleated giant cell formation in acutely infected VB cells infected at a multiplicity of infection of 1, and scored two days after infection in the presence or absence of varying concentrations of drug, for the formation of multinucleated giant cells. (free virus is washed out after a one hour incubation pretreatment at room temperature). […] Supernatants were also isolated and the level of HIV p24 antigen determined. Infectious virus was measured in treated cultures by performing a syncytial assay as described above.
Compounds A and B were tested for inhibition of T lymphoma cell cytopathic effect at various drug concentrations after acute infection with HIV for 48 hours. […] It is possible that the diminished effects noted in later experiments could have been secondary to drug stability problems.

[2] = system: permeability of membranes; settings: cited from earlier work
[3] = in vivo; cited from earlier work
[4] = system: glucose-6-phosphate dehydrogenase; settings: cited from earlier work
[5] = system: HIV in activated peripheral blood lymphocytes; assay: Inhibition of HIV mediated cytopathic effects / p24 antigen production in activated peripheral blood lymphocytes; assay type: cell-based; settings: for p24 antigen production: activated PBL, about 7 days after infection, FIG. 2
Experimental: as §1
4. HIV soluble p24 antigen detection: Soluble p24 antigens were measured with the Abbott HIV antigen detection system.
(b) Although the VB T lymphoma cell line behaves in a similar manner to peripheral blood CD4 positive T lymphocytes in regard to HIV induced cytopathic effects, the above described experiments were performed on phytohemagglutinin (PHA) activated lymphocytes to determine whether lymphocytes are more or less sensitive to Compounds A and B than is the VB cell line. In this assay system, at the time that multinucleated giant cells appeared within infected lymphocyte cultures, the supernatants were analyzed for the presence of HIV p24 antigens and were titered on indicator VB lymphoma cells to determine the titer of infectious virus present at each point.
To test whether the effects of compounds A and B on acute VB T lymphoma infection would be mimicked by activated peripheral blood lymphocytes (PBC), HIV at a multiplicity of infection of one was added to lymphocytes that had been activated for 48 hours with 2 μg per ml of PHA. After the initial infection for one hour, the activated lymphocytes were washed and resuspended for the one week of culture. Multinucleated giant cells began to form approximately 7 days after the initial infection, at which time the culture supernatants were harvested and tested for the presence of HIV p24 antigens. The accumulation of HIV p24 antigens in the supernatant is representative of production of HIV from infected cells.

[6] = system: HIV in chronically infected human macrophages; assay: Antiviral testing of chronically HIV infected macrophages; assay type: cell-based
From the text: as §2
3. Flow cytometry: An Ortho Cytofluorgraf II-S (Trade Mark) that has a biohazard containment flow cell was used for analysis of HIV infected samples. HIV p24 antigens were detected utilizing a mouse monoclonal anti-p24 (du Pont), and mouse antibodies were identified utilizing an FITC conjugated goat anti-mouse IgG.
6. Analysis of chronically infected cells: To determine whether compounds A and B are effective at inhibiting HIV expression in macrophages and chronically infected T cells, the following experiments were performed. The chronically infected T cell line, HXB/H9 was exposed to various concentrations of drug for four days in vitro. At four days, the HXB cells were assayed for the presence of p24 intracytoplasmically, and supernatants were assayed for the presence of infectious virus as described above.
Because macrophages can be infected and produce HIV for very long periods of time without substantial loss of viability, chronically infected cells were tested, specifically a population that was between 30 and 50% HIV antigen positive, for inhibition of cytoplasmic HIV p24 antigen production. FIG. 5 indicates the results of three separate experiments carried out.

C[C@]12CC[C@H](O)CC1=CC[C@@H]1[C@@H]2CC[C@]2(C)C(=O)CC[C@@H]12 [A, dehydroepiandrosterone]
antiviral effects in comparison with AZT, T lymphoma cells ([1]; acute infection): inferior | antiviral effect in acute infection studies of T lymphoma cells ([1]; acute infection, conclusions): mild antiviral effect | inhibition of cytopathic effect in two subsequent experiments ([1]; compounds diluted in DMSO, possibly secondary to drug stability problems): less striking effect | effect on permeability of membranes [2]: inhibitory effect | metabolic disorders and liver cirrhosis [3]: suppress some of the metabolic disorders and liver cirrhosis | pain in ischemic heart disease, especially angina pectoris [3]: reduces pain | effect on glucose-6-phosphate dehydrogenase [4]: inhibits glucose-6-phosphate dehydrogenase | effect on glucose-6-phosphate dehydrogenase ([4]; listed as DHEA): inhibitory effect | p24 antigen production ([5]; 10^-4 molar): moderately inhibited | p24 antigen production ([5]; 10^-5 molar): slightly less inhibited | antiviral effects in comparison with AZT, lymphocytes ([5]; acute infection): inferior | antiviral effect in acute infection studies of lymphocytes ([5]; acute infection, conclusions): mild antiviral effect | inhibition compared with inhibition of acute infection of macrophages ([6]; 10^-4 and 10^-5 molar, FIG. 5 vs FIG. 4): somewhat less than the inhibition of acute infection of macrophages | inhibition of cytoplasmic HIV p24 antigen production in chronically infected macrophages ([6]; both 10^-4 and 10^-5 molar, three experiments, FIG. 5): some inhibition
